Measurements taken from patent US20020147326A1, “Hexameric fusion proteins and uses therefor” (SmithKline Beecham Corporation, priority 1996, published 2002).
Entries after “also recorded” stand apart in the source; their conditions may differ.

Legend:
[1] = system: murine T-cell hybridoma cell lines expressing human CD28 (PCD28.1.s2.1, DCL27CD28wt.s2); experiment: IL-2 production by CD28 T-cell hybridomas (CTLL-2 bioassay); format: cell-based; conditions: addition of CTLA4-Ig
Text: The CD80- and CD86-Igαtp proteins were compared to the corresponding CD80 and CD86-Ig proteins to determine their ability to stimulate cells expressing human CD28 using two murine T-cell hybridoma cell lines expressing human CD28, PCD28.1.s2.1 and DCL27CD28wt.s2. The PCD28.1.s2.1 cell line was described in Example 1, part 3. The DCL27CD28wt.s2 cell line was created by transfection of the DC27 cell line [F. Pages et al., Nature, 369:327-329 (1994); F. Pages et al., J. Biol. Chem., 271(16):9403-9409 (1996)] with the same CD28 expression vector used for the PCD28.1.s2.1 cells [D. Couez et al., Molecular Immunology, 31:47-57 (1994)]. These cell lines were examined for their ability to produce IL-2 in response to activation with CD80- and CD86-Ig in comparison with the corresponding Igαtp fusion proteins. 96-well plates were coated with or without a CD3 antibody together with the CD80 and CD86 fusion proteins. This was accomplished by first incubating the plates with a previously determined suboptimal concentration of hamster […] CD3 antibody (MAb 145-2C11, Boerhinger-Mannheim Biochemicals) for two hours at room temperature (RT) or with just buffer alone, washing the plates with PBS, adding goat anti-human Ig heavy chain (GAH-IgHc, Sigma Chemical Co.) for an additional two hours at RT, washing again and coating with different concentrations of the CD80 or CD86 fusion protein for 16-18 hours at 4° C., washing again, and finally blocking for 30 min. with 0.2% BSA-PBS. T cells (1×10^5/well) were added in 150 μl medium into duplicate wells. For comparison, the soluble fusion proteins and the 248.23.2 CD28 MAb (IgM) [A. Morretta, University of Genova, Italy] were added to non-coated wells. T cells were incubated in the wells for 24 hours at 37° C., and supernatants were collected and evaluated for IL-2 levels in a standard CTLL-2 bioassay [S. M. Gillis et al., J. Immunol., 120:2027 (1978)]. Briefly, 1×10^4 IL-2 dependent CTLL-2 cells (ATCC)/well in 75 μl medium were added to an equal volume of test supernatant and incubated for 24 hours at 37° C. The cells were pulsed with 10 μl of 5 mg/ml MTT (Sigma Chemical Co.) for 4 hours, and lysed with […] 10% SDS/0.01N HCl solution for 14-16 hours. OD570 readings were converted into ng/ml of IL-2 based on a standard curve generated by treating cells with known concentrations of IL-2.
IL-2 promoter activity and IL-2 levels were measured similarly to that described in parts A and B above, except that proliferation of the reader CTLL-2 cells was measured by ^3H-thymidine incorporation.

[2] = biological target: T1, biotinylated CD80-Igαtp binding to immobilized CD28-Ig (Homo sapiens, UniProt P10747); experiment: Competition ELISA of biotinylated CD80-Igαtp binding to immobilized CD28-Ig; conditions: competitor added simultaneously; wells coated with CD28-Ig
T1 construct: native leader and extracellular domain peptide of CD28 and CD80 were grafted onto a human IgG1 heavy chain Fc region; human IgG1 Fc (hinge/CH2/CH3); made in house; host or cells: CHO cells
Procedure: The wells of 96 well microtiter plates (Immunlon 4, Dynatech Laboratories) were coated with CD28-Ig (1, 2, or4 μg/ml) in 100 μl/well of 0.1 M sodium bicarbonate, pH 9.4 and incubated overnite @4° C. The wells were washed with PBS (phosphate buffered saline) and blocked with 0.5% gelatin in PBS for 1 hour. Following an additional PBS wash, biotinylated CD80-Igαtp was serially diluted in PBS containing 1 mg/ml BSA, 0.05% Tween directly in the wells in a final volume of 0.1 ml and incubated for 1 hour. The wells were washed with PBS and bound CD80-Igαtp protein was measured by the addition of 0.1 ml of strepavidin-HRP (streptavidin conjugated with horseradish peroxidase (Southern Biotech)) at a 1:2000 dilution for 1 hour, followed by washing and color development with 100 μl ABTS substrate (Kierkegaard and Perry Laboratories Inc., Maryland) and measurement of absorbance at 405 nm. In some cases the color reactions were arrested by addition of 100 μl of 1% SDS prior to measurement of absorbance. In this figure, “CD28-Fc”, “CTLA4-Fc”, and “B7-FcA” denote CD28-Ig, CTLA4-Ig, and CD80-Igαtp, respectively.

CTLA4-Ig: binding protein/Fc construct for human CTLA4 with human IgG1 Fc
blockade of the response to CD80- and CD86-Igαtp [1]: complete blockade | inhibition of biotinylated CD80-Igαtp binding to immobilized CD28-Ig [2]: inhibited; also recorded: blocked the binding sites on CD80-Igαtp
